Results from patent publication US5116832A, “Penem derivatives production and use thereof” (Suntory Limited, priority 1986, dated 1992).

Tests used:
[1] = target: T1, purified human renal dehydropeptidase (Homo sapiens, UniProt P16444); experiment: Stability test against renal dehydropeptidase; type: in vitro ADME; details: for half-life at 100 µM: human, purified renal dehydropeptidase, pH 7
T1 sequence (P16444 17-411): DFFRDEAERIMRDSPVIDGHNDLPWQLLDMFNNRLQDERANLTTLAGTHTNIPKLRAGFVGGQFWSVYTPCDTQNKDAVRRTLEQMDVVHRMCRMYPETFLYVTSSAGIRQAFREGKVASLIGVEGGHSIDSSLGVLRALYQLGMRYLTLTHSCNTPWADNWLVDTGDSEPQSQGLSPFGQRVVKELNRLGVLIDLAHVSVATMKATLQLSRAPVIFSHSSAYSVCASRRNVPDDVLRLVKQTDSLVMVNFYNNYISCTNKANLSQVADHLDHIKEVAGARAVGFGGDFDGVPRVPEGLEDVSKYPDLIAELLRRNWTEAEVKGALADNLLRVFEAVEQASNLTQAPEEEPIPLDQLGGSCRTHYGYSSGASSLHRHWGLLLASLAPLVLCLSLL
Description: Method: 0.325 μ/ml (final concentration) of purified human renal dehydropeptidase and 100 μM (final concentration) of each test compound were heated to 37° C. in 50 mM of Tris/HCl buffer (pH 7.0) and samples were collected at planned hours. Remaining amounts of the compound in the samples were analyzed quantitatively and the half-life period of each compound was calculated.

E. coli KC-14 = experiment: Therapeutic effect on the experimental infection in mice (E. coli KC-14); type: in vivo; details: Escherichia coli, E. coli KC-14 4.8 × 10^5 colony forming unit intraperitoneally, survival 5 days later, male ICR mice
Description: Among the novel compounds as obtained according to the present ivention, the compound (27) was used to carry out a therapy experiment with infected animals. With male mice of ICR strain (5-weeks aged, weighing from 23 to 27 g) being employed as an experimental animal, E. coli KC-14 was inoculate intraperitoneally to the mice, and, 2 hours later, the compound (27) was administered subcutaneously or orally.

S. aureus Smith = experiment: Therapeutic effect on the experimental infection in mice (S. aureus Smith); type: in vivo; details: Staphylococcus aureus, sc, 120 h, S. aureus Smith 3.8 × 10^6 colony forming unit, compound subcut.
Acute toxicity test = details: mouse, in vivo
Text: Among the novel compounds as obtained according to the present invention, the compound (27) was selected to conduct an acute toxicity test. Mice of ICR strain (4-weeks aged), being used as an experimental animal, were given the compound through oral and intravenous routes.

SMILES	stability against renal dehydropeptidase (in words) [1]	half-life at 100 µM [1]	ED50 (E. coli KC-14; KC14, 120 h, compound oral 2 hours later)	ED50 (E. coli KC-14; KC14, ip, 120 h, compound subcut. 2 hours later)	ED50 (S. aureus Smith)	survival in acute toxicity test (Acute toxicity test; iv)	survival in acute toxicity test (Acute toxicity test; po)	Remaining amount after 9 hours ([1]; 100 μM test compound, human renal dehydropeptidase, 37° C., 50 mM Tris/HCl buffer pH 7.0, 9 hours)
C[C@@H](O)[C@H]1C(=O)N2C(C(=O)O)=C(CC3CCOC3)S[C@H]12 (stereo partly shown) [Compound 27]	more stable than Sch 29482 and Imipenem	3.81 h	9.5 mg/kg	3 mg/kg	1.11 mg/kg	all found to survive	all found to survive	–
CCSC1=C(C(=O)O)N2C(=O)[C@H]([C@@H](C)O)[C@H]2S1 [Sch 29482]	–	1.44 h	–	–	–	–	–	–
C[C@@H](O)[C@H]1C(=O)N2C(C(=O)O)=C(SCCN=CN)C[C@H]12 [Imipenem]	–	3.02 h	–	–	–	–	–	14.7 µg/mL
